Source: patent US5786377A, “Pyrrolo[3,2-E]indol derivatives, process for the preparation thereof and applications” (Universidad de Santiago de Compostela, priority 1993, dated 1998)
In brackets after ≈: the same amount, converted by molar mass.

Key:
P388 leukemic tumor = test: P388 antitumoral model in vivo, survival of leukemic mice (%C/T); set-up: species or system mouse
Method: Description of the P388 Antitumoral Model
Normally, 1×10^6 cells in ascitic fluid was implanted. i.p. in CD2 F1 mice. Treatment with the agent tested i.p. began one day after the tumor had been implanted and it is continued daily up to a total of 5 injections for synthetic products and of 9 injections for raw natural products. The results are expressed as percentage of the control survival time.
CDFl mice weighing 18-22 gr (+/-3 gr) were implanted on day 0 of the test period 0.1 ml. of a dilution of 1.0×10^7 tumor cells coming from DBA/2N mice used for the propagation of the tumor.
On day 1 of the test period the animals were grouped at randam in groups of six animals. Each group is weighed and the average weight is written down. Each compound to be tested in duluted in 4 lvels of dosis for each multidose test as of the determiantion of the highest non-toxic dose (v.g. 400 mg/kg; 100 mg/kg; 10 mg/kg.)
Administration of the test compounds is started on day 1 using volumns of 1/2 drug injected i.p. Injections are given on days 1 to 9 of the test period, unless it is indicated to the contrary. The animals are weighed on day 5, which is the one which in this system is considered the day of toxicity. Toxicity in this test system is defined as: […]
A. 34% deaths up to day 5--acute toxicity
B. C/T <85% --chronic toxicity
C. A negative average of the weight change of the animals >4 g up to day 5--chronic toxicity
The data obtained upon testing the compounds in vivo in comparison with the P388 leukemic tumor model in mice are shown in the following table:
Where %C/T means average survival of the tested group/average survival of […]

cancer = test: anticarcinogenic activity in vivo and toxicity, general statement on the biological activity studies; conditions: in words; for toxicity: in vivo
Text: This makes them especially ideal for used as agents for the therapeutic treatment of cancer in its diverse manifestations and, especially, in cases of leukemia.

[1] = cited from earlier work
[2] = in words; cited from earlier work
P388 = conditions: cited from earlier work
MEL-28 = test: in vitro test, MEL-28; format: cell-based; conditions: Homo sapiens, SK-MEL-28
Text: (§1) On the other hand, the results of the tests in vitro carried out on compounds (IIIa) and (IIIb) were the following: […]

HT-29 = test: in vitro test, HT-29; format: cell-based; conditions: Homo sapiens
Text: as §1

A-549 = test: in vitro test, A-549; format: cell-based; conditions: Homo sapiens, A549
Text: as §1

P-388 = test: in vitro test, P-388; format: cell-based; conditions: Mus musculus, P388
Text: as §1

[3] = compared with CC-1065; cited from earlier work

## COC(=O)c1cn(C)c2c(O)cc3c(c12)C(CCl)CN3C(=O)c1cc2cc(NC(=O)c3cc4ccccc4o3)ccc2[nH]1 (stereo not drawn) [Compound (III), methyl 6-{5-[(benzofuran-2-ylcarbonyl)-amino]1H-indol-2-carbonyl}-8-chloromethyl-4-hydroxy-3-methyl-3,6,7,8,tetrahydropyrrolo[3,2-e]indol-1-carboxylate]
P388 leukemic tumor; 0.500 mg/kg i.p.
  %C/T (average survival of the tested group/average survival of the controls and untreated ones): > 391.3%
cancer
  toxicity: very low toxicity
  anticarcinogenic activity in vivo: high anticarcinogenic activity in vivo

## COc1c(O)c2c(c3cc(C(=O)N4CCc5c4c(O)c(OC)c4[nH]c(C(=O)N6CC7CC78C6=CC(=O)c6[nH]cc(C)c68)cc54)[nH]c13)CCN2C(N)=O (stereo not drawn) [CC-1065]
[1]; mice, therapeutic doses
  toxicity (delayed deaths): high toxicity, producing delayed deaths in mice at therapeutic doses
[2]
  cytotoxic strength: extremely strong cytoxine

## COC(=O)c1cn(C)c2c1C13CC1CN(C(=O)c1cc4cc(OC)c(OC)c(OC)c4[nH]1)C3=CC2=O (stereo not drawn) [(VI), methyl 2-(5,6,7-trimethoxy-1H-indolz2-carbonyl)-5-methyl-4-oxo-1,2,4,5,8a-hexahydrocyclopropa[c]pyrrolo[3,2-e]indol-7-carboxylate]
P388 leukemic tumor; 0.500 mg/kg i.p.
  %C/T (average survival of the tested group/average survival of the controls and untreated ones): 210.9%
  %C/T activity class (significance mark): ** (Significant activity (strong): C/T > = 175%)
cancer
  toxicity: very low toxicity
  anticarcinogenic activity in vivo: high anticarcinogenic activity in vivo

## COC(=O)c1cn(C)c2c1C13CC1CN(C(=O)c1cc4cc(NC(=O)c5cc6ccccc6o5)ccc4[nH]1)C3=CC2=O (stereo not drawn) [(IV), methyl 2-[5-[(benzofuran-2-ylcarbonyl)amino]-1H-indol-2-carbonyl]-5-methyl-4-oxo,1,2,4,5,8,8,a-hexahydrocyclopropa[c]pyrrolo[3,2-e]indol-7-carboxylate]
P388 leukemic tumor; 0.300 mg/kg i.p.
  %C/T (average survival of the tested group/average survival of the controls and untreated ones): 251.1%
  %C/T activity class (significance mark): ** (Significant activity (strong): C/T > = 175%)
cancer
  toxicity: very low toxicity
  anticarcinogenic activity in vivo: high anticarcinogenic activity in vivo

## O=C(Nc1ccc2[nH]c(C(=O)N3CC4CC45C3=CC(=O)c3ccccc35)cc2c1)c1cc2ccccc2[nH]1 (stereo not drawn) [CBI-Ind2]
P388
  results in the P388 model in vivo: very good results in the P388 model in vivo

## COC(=O)c1cn(C)c2c(OC(=O)c3ccc([N+](=O)[O-])cc3)cc3c(c12)C(CCl)CN3C(=O)c1cc2cc(NC(=O)c3cc4ccccc4o3)ccc2[nH]1 (stereo not drawn) [IIIb]
MEL-28
  IC50: 0.5 ng/mL (≈ 0.67 nM)
HT-29
  IC50: 0.5 ng/mL (≈ 0.67 nM)
A-549
  IC50: 0.1 ng/mL (≈ 0.134 nM)
P-388
  IC50: 0.02 ng/mL (≈ 0.0268 nM)

## Cc1c[nH]c2c1C13CC1CN(C(=O)c1cc4cc(NC(=O)c5cc6ccccc6o5)ccc4[nH]1)C3=CC2=O (stereo not drawn) [Adocelesine]
[3]
  tumoral effectiveness versus the natural product: greatly exceeds the natural product in tumoral effectiveness
[1]; mouse, in vivo
  delayed lethality: without provoking delayed lethality

## COC(=O)c1cn(C)c2c(O)cc3c(c12)C(CCl)CN3C(=O)c1cc2cc(OC)c(OC)c(OC)c2[nH]1 (stereo not drawn) [Compound (V), methyl 6-(5,6,7-trimethoxy-1H-indol-2-carbonyl)-8-chloromethyl-4-hydroxy-3-methyl-3,6,7,8-tetra-hydropyrrololo[3,2-e]indol-1-carboxylate]
P388 leukemic tumor; 0.050 mg/kg i.p.
  %C/T (average survival of the tested group/average survival of the controls and untreated ones): 133.9%
  %C/T activity class (significance mark): ** (Significant activity (strong): C/T > = 175%)
cancer
  toxicity: very low toxicity
  anticarcinogenic activity in vivo: high anticarcinogenic activity in vivo
